Assay results from patent publication US12440479B2, “Prevention or treatment of chronic organ injury” (GEORG-AUGUST-UNIVERSITAET GOETTINGEN, STIFTUNG …, priority 2018, dated 2025).

How the values were obtained:
functional parenchyma = test: Streptozotocin (STZ) model of diabetic nephropathy; type: in vivo; details: STZ mice; FK506 0.2 mg/kg or GPI-1046 10 mg/kg subcutaneously per day
Protocol: Based on these observations, we next hypothesized that FK506 and small molecule FKBP12 inhibitor GPI-1046 could equally protect functional parenchyma in an experimental models of diabetic nephropathy (168). Diabetes was induced in 8 to 12 weeks old C57BL/6N mice by a single intraperitoneal injection of streptozotocin (STZ) at 200 mg/kg in 10 mmol/L citrate buffer (pH 4.5), citrate buffer alone was injected as control (168). FK506 (0.2 mg/kg body weight) and GPI-146 (10 mg/kg body weight) in DMSO once daily were applied by subcutaneous injections starting one day prior of STZ administration. At day 3 after STZ injection, diabetes was confirmed by urine dipstick. Mice were sacrificed 8 weeks after STZ injection for further analyses.

ARNT = ARNT mRNA expression levels in organs of treated mice (qRT-PCR); type: in vivo; details: FK506 0.2 mg/kg or GPI-1046 30 mg/kg orally per day; kidney, heart, brain, spinal cord, skin, liver, lung and intestine
Protocol: Solutions were changed once a day and mice were sacrificed at indicated time points.
Mice were injected subcutaneously with 10 mg/kg body weight per day GPI-1046 (Santa Cruz Biotechnology, Dallas, USA) in DMSO once daily starting one day prior of surgery, control mice received equivalent volume of vehicle DMSO. For oral administration, GPI-1046 stock solution was diluted in glucose-water (5%) and orally applied on the basis of an average drinking volume of 3 mL and a body weight of 20 g per mouse. Three days after challenging with UUO, mice were treated orally with either vehicle buffer glucose (5%) or 30 mg/kg body weight per day GPI-1046, respectively.
For SYBR-based real-time PCR, cDNA synthesis was performed by using DNase I digestion (Invitrogen, Carlsbad, USA) and SuperScript II Reverse Transcriptase (Invitrogen, Carlsbad, USA) according to the manufacturer's protocol. 1 μL of reverse-transcribed cDNA was added to the reaction mixture containing the primer pair (200 nmol/L each) and diluted 2× Fast SYBR Green Master Mix (Applied Biosystems, Carlsbad, USA) in a final volume of 20 μL for each PCR reaction. The real-time PCR reactions were performed in a 96-well reaction plate using the StepOne Plus Real-Time System (Applied Biosystems, Carlsbad, USA) and were done in triplicates. […] The relative expression levels were calculated using the equation 2^−ddCt.

[1] = system: intrarenal ARNT/ALK3 signaling; test: UUO kidneys: ARNT/ALK3 expression and pSmad1/5/8 (qRT-PCR, immunoblotting, immunostaining); type: in vivo, mice; details: for canonical BMP signaling responses / intrarenal ARNT and ALK3 transcription: FK506 0.2 mg/kg or GPI-1046 30 mg/kg orally per day starting three days after UUO; for intrarenal NFAT signaling: picomolar FK506 or GPI-1046
Protocol: Eight to twelve weeks-old C57/6, yGTcre−;Yy1fl/fl and yGTcre+;Yy1fl/fl mice were anesthetized with isoflurane inhalation (2-3%), analgesia was performed by subcutaneous injection of 0.1 mg/kg body weight per day Buprenorphine. The ureter was separated from the surrounding tissues and two ligatures were placed about 5 mm apart in upper two-thirds of the left ureter to obtain reliable obstruction. Mice were sacrificed 3, 7 or 10 days after ureteral obstruction for further analyses, as described before (53, 153-155).
Paraffin-embedded specimens were deparaffinized in xylene and rehydrated in ethanol containing distilled water. Tissue sections were stained using polyclonal antibodies against ALK3 (sc-20736, Santa Cruz Biotechnology, Dallas, USA) and ARNT (3718S, Cell Signaling, Danvers, USA), peroxidase labeling was performed using Vectastain Universal Elite ABC Kit (Vector Laboratories, Burlingame, USA) according to the manufacturer's protocol. AEC Substrate-Chromogen (Dako, Glostrup, Denmark) was applied for peroxidase visualization according to the manufacturer's protocol. Nuclear counterstain was performed by using Mayer's Hematoxylin Solution (Sigma, St. Louis, USA).
For immunofluorescent staining, primary antibodies against ARNT (5537S, Cell Signaling, Danvers, USA), Hif1α (H6535, Sigma, St. Louis, USA), Hif2α (ab20654, Abcam Biochemicals, Cambridge, UK), phosphorylated Smad1/5/8 (pSmad1/5/8, sc-12353, Santa Cruz Biotechnology, Dallas, USA), CD45 (550539, BD Biosciences, Franklin Lakes, USA), Collagen-1 (ab34710, Abcam Biochemicals, Cambridge, UK), α-smooth muscle actin (aSMA, A5228, Sigma, St. Louis, USA), FKBP12 (ab2918, Abcam Biochemicals, Cambridge, UK) and YY1 (ab12132, Abcam Biochemicals, Cambridge, UK) were used, secondary antibodies were labeled with Alexa Fluor 488 or 568 (Life Technologies, Carlsbad, USA). Renal basement membranes were stained with antibodies against Collagen-4 (1340-30, SouthernBiotech, Birmingham, USA), cardiac cell membranes with antibodies against WGA (W11261, Life Technologies, Carlsbad, USA). Nuclear staining was performed using 4′,6-diamidino-2-phenylindole (DAPI, Vector Laboratories, Burlingame, USA). Relative areas positive for Collagen-1, aSMA, tubular nuclei positive for ARNT and pSmad1/5/8 were quantified in 10 high power fields per section at 400× magnification.
For SYBR-based real-time PCR, cDNA synthesis was performed by using DNase I digestion (Invitrogen, Carlsbad, USA) and SuperScript II Reverse Transcriptase (Invitrogen, Carlsbad, USA) according to the manufacturer's protocol. 1 μL of reverse-transcribed cDNA was added to the reaction mixture containing the primer pair (200 nmol/L each) and diluted 2× Fast SYBR Green Master Mix (Applied Biosystems, Carlsbad, USA) in a final volume of 20 μL for each PCR reaction. The real-time PCR reactions were performed in a 96-well reaction plate using the StepOne Plus Real-Time System (Applied Biosystems, Carlsbad, USA) and were done in triplicates. An initiation step at 95° C. for 20 seconds was followed by 40 cycles at 95° C. for 3 to seconds and 60° C. for 30 seconds, with one cycle of dissociation at 95° C. for 15 seconds, 60° C. for 60 seconds, and 95° C. for 15 seconds. The intercalation of SYBR Green dye and its fluorescent signal is directly proportional to the amount of amplified DNA and was transformed into the cycle threshold (Ct). For normalization, the Ct values of the housekeeping genes Gapdh and Actb were subtracted from the Ct values of the gene of interest to generate the dCt values. The relative expression levels were calculated using the equation 2^−ddCt.
Tissue and cells were homogenized in NP40 lysis buffer (Life technologies, Carlsbad, USA) supplemented with protease inhibitor cocktail (Roche, Basel, Switzerland).

UUO-challenged kidneys = test: Unilateral ureteral obstruction (UUO): tubular injury and interstitial fibrosis (histology, immunostaining); type: in vivo, mice
murine TECs = test: Murine TEC cultures (MCT): mRNA expression (qRT-PCR), pSmad1/5/8 immunostaining, proliferation; type: cell-based, mouse; details: cultured TECs, GPI-1046 10 μM
ARNT/HIF1α, ARNT/AHR = test: Co-immunoprecipitation using antibodies to ARNT in cultured TECs; type: cell-based, mouse; details: cultured TECs in response to FK506 (200 pM), IP: Arnt
Protocol: (§1) CoIP was performed with Protein G Immunoprecipitation Kit (Roche, Basel, Switzerland). Protein A/G PLUS Agarose beads (Santa Cruz Biotechnology, Santa Cruz, USA) were used for the lysate pre-cleaning and pull-down. For each CoIP, 2×10^7 MCT cells have been used following the manufacturer's instructions. Yy1 (ab12132, Abcam Biochemicals, Cambridge, UK), Fkbp12 (ab2918, Abcam Biochemicals, Cambridge, UK), Arnt (3718, Cell Signaling, Danvers, USA), GFP (MA5-15256, Thermo Fisher Scientific, Waltham, USA) and myc-tag antibodies (2276, Cell Signaling, Danvers, USA) were used for immunoprecipitation, detection of co-immunoprecipitated Fkbp12 (ab12132, Abcam Biochemicals, Cambridge, UK), Hif1α ([MUT], Sigma, St. Louis, USA), Ahr (MA1-514, Thermo Fisher Scientific, Waltham, USA), GFP (MA5-15256, Thermo Fisher Scientific, Waltham, USA) and myc-tag (2276, Cell Signaling, Danvers, USA) was performed by immunoblotting.

FKBP12/YY1 = FKBP12/YY1 (Mus musculus, UniProt P26883); test: Co-immunoprecipitation after Yy1 pull-down in cultured TECs; type: cell-based; details: FK506 added to culture media, IP: Yy1
Sequence of FKBP12/YY1 (P26883 whole entry): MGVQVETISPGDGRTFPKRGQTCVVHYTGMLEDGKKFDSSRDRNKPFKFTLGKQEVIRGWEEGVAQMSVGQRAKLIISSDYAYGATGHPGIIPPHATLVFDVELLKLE
Protocol: as §1

[2] = UUO, FK506 0.2 mg/kg or GPI-1046 30 mg/kg orally per day starting three days after UUO
[3] = UUO, VMO 12.5 mg/kg intraperitoneally or FK506 0.2 mg/kg orally per day
[4] = UUO, intrarenal ARNT induction depleted (Arnt-VMO)
[5] = UUO, FK506 0.02-5.0 mg/kg or CsA 10 mg/kg orally per day starting one day prior to UUO

CCC(C)(C)C(=O)C(=O)N1CCC[C@H]1C(=O)OCCCc1cccnc1 [GPI-1046, 3-(3-pyridyl)-1-propyl-(2S)-1-(3,3-dimethyl-1,2-dioxopentyl)-2-pyrrolidinedine carboxylate]
protection of functional parenchyma from chronic injury (functional parenchyma): equally effective
transcriptional ARNT induction in organs (ARNT): transcriptional ARNT induction was present
intrarenal ARNT and ALK3 transcription, BMP signaling responses ([1]; UUO, 10 mg/kg subcutaneously per day starting one day prior, compared to FK506): equally induced
canonical BMP signaling responses ([1]; UUO): enhanced
intrarenal ARNT and ALK3 transcription ([1]; UUO): equally effective
intrarenal NFAT signaling ([1]; UUO): not affecting
tubular injury and renal fibrogenesis (UUO-challenged kidneys; UUO, 10 mg/kg subcutaneously per day starting one day prior): protected
tubular injury and renal fibrogenesis (UUO-challenged kidneys; [2]): attenuated
canonical BMP signaling responses (murine TECs): activation of canonical BMP signaling responses
transcriptional induction of ARNT and ALK3 mRNA expression levels (murine TECs): equally effective

C=CC[C@@H]1/C=C(\C)C[C@H](C)C[C@H](OC)[C@H]2O[C@@](O)(C(=O)C(=O)N3CCCC[C@H]3C(=O)O[C@H](/C(C)=C/[C@@H]3CC[C@@H](O)[C@H](OC)C3)[C@H](C)[C@@H](O)CC1=O)[C@H](C)C[C@@H]2OC [FK506, tacrolimus]
protection of functional parenchyma from chronic injury (functional parenchyma): equally effective
transcriptional ARNT induction in organs (ARNT): transcriptional ARNT induction was present
renal ARNT expression ([1]; UUO mice, low-dose FK506 or CsA): significantly increased
nuclear pSmad1/5/8 ([1]; UUO-challenged murine kidneys): nuclear pSmad1/5/8 accumulation
expression of ALK3 ([1]; UUO-challenged murine kidneys, treatment starting one day prior): specifically induced
canonical BMP signaling responses ([1]; UUO): enhanced
intrarenal ARNT and ALK3 transcription ([1]; UUO): equally effective
intrarenal ARNT, ALK3 and nuclear pSmad1/5/8 immunostaining [1, 3]: equally induced
intrarenal ALK3-dependent BMP signaling responses [1, 4]: failed to induce
intrarenal NFAT signaling ([1]; UUO): not affecting
effect of FK506 on ALK3 expression, nuclear pSmad1/5/8, tubular injury or interstitial fibrosis (UUO-challenged kidneys; UUO mice that had also received Fkbp12-VMO or Yy1-VMO): no additive effects
effect of FK506 on BMP signaling, tubular injury, renal fibrogenesis, ALK3 transcription (UUO-challenged kidneys; UUO, mice with YY1 depleted in TECs (yGTcre+;Yy1fl/fl), FK506 0.2 mg/kg orally per day): no additive effects
tubular injury and renal fibrogenesis (UUO-challenged kidneys; [2]): attenuated
chronic tubular injury (UUO-challenged kidneys; [5]): reduced
interstitial fibrosis (UUO-challenged kidneys; [5]): reduced
tubular injury and tubulointerstitial fibrosis (UUO-challenged kidneys; [3]): attenuated
protection of kidneys from tubular injury and progressive fibrotic disease (UUO-challenged kidneys; [4]): failure of FK506 to protect
ARNT/HIF1α or ARNT/AHR interaction (ARNT/HIF1α, ARNT/AHR): did not provide evidence
FKBP12/YY1 interaction (FKBP12/YY1): not detectable
